Measurements: paper PMC6597546, “Identification of a potent benzoxaborole drug candidate for treating cryptosporidiosis” (Nature Communications, 2019)
“And” between values parts separate entries of the source, which are not always exact repeats. Equal entries are not always repeated. Where two headings read alike, the source gives them in different places.

How the values were obtained:
[1] = tested on: C. parvum (Bunch Grass Farms Iowa isolate); set-up: method as in PMID 29339392; settings: cited from earlier work
[2] = tested on: C. parvum (University of Arizona Iowa isolate); type: in vivo, C57BL/6 IFN-γ−/− mice
Procedure: Interferon gamma (IFN-γ) knockout mice were used to model acute Cryptosporidium infection. All IFN-γ knockout mouse studies were performed in compliance with animal care guidelines and were approved by the Explora BioLabs (San Diego, CA) Institutional Animal Care and Use Committee. Four-week-old female C57BL/6 IFN-γ^−/− mice with normal flora were purchased from The Jackson laboratory and acclimated for 3 days prior to infection by oral gavage with ∼10^6 C. parvum Iowa isolate oocysts (Sterling Laboratory, University of Arizona) suspended in sterile distilled water. At the indicated times following infection, mice were treated with compound vehicle alone, clofazimine (positive control), or once daily AN7973 at the indicated doses. Fecal parasite shedding was measured by isolating oocysts using sucrose gradient centrifugation. Sheather’s sucrose solution was freshly prepared by dissolving 156.25 g sucrose and 2.5 mL phenol in 100 mL water. Two sucrose solutions were prepared: (A) specific gravity of 1.103 (33% Sheather’s and 0.1% Tween 80 in PBS) and (B) specific gravity of 1.064 (20% Sheather’s and 0.1% Tween 80 in PBS). In a 2 mL microfuge tube, a gradient was prepared by laying 0.75 mL of solution A, then carefully laying 0.75 mL of solution B, slowly as to prevent mixing of the two layers. Fecal pellets were removed from storage, and homogenized by vortexing and pipetting. 0.2 mL fecal homogenate was overlaid on top of gradient in each microfuge tube. Oocysts were floated from feces by centrifugation at 1000 × g for 20 min and collected with a pipet tip from the 1.064/1.103 specific gravity interface between solutions A and B. Oocysts were rinsed once in cold PBS, pelleted by centrifugation at 15,000 × g for 10 min, and resuspended in PBS. Isolated oocysts were then stained with a fluorescein isothiocyanate-conjugated mouse anti-Cryptosporidium antibody (Bio-Rad catalog# 2402-3007 F; 0.25 µg per sample) and quantified using a Guava EasyCyte flow cytometer and CytoSoft data acquisition software (version 5.3; Guava Technologies, Inc.). Oocysts per milliliter of sample were normalized to counts per milligram of feces.

CC(C)/N=c1\cc2n(-c3ccc(Cl)cc3)c3ccccc3nc-2cc1Nc1ccc(Cl)cc1 [Clofazimine, clofazimine, reference compound]
efficacy against Cryptosporidium in the NSG mouse [1]: lacks efficacy | fecal oocyst shedding, individual mice ([2]; 10 mg/kg QD from day 4, day p.i. 14): 15 (2×) and 18 and 16 | fecal oocyst shedding, individual mice ([2]; 25 mg/kg QD from day 4, day p.i. 8): 10 and 8 (2×) and 9
